# Measured values published in patent US20130202653A1, “3-ARYL-3-HYDROXY-2-AMINO-PROPIONIC ACID AMIDES, 3-HETEROARYL-3-HYDROXY-2-AMINOPROPIONIC ACID AMIDES AND RELATED COMPOUNDS HAVING ANALGESIC AND/OR IMMUNO STIMULANT ACTIVITY” (Allergan, Inc., priority 2005, published 2013).
# Structures can show the parent of a compound that is named as a salt. Where two headings read alike, the source gives them in different places.
# Tested on: tactile allodynia in the rat Chung model
# Assay: Chung model: reversal of tactile allodynia (von Frey hairs) after spinal nerve ligation
# Type: in vivo
# Details: for inhibition in vivo at 0.3 mg/kg / inhibition in vivo at 0.03 mg/kg: Rattus norvegicus, ip, read-out: Peak % Pain reversal: time post dose; for inhibition in vivo at 0.03 mg/kg: 30 μg/kg IP
# Source text: An art-accepted model or assay for measuring an analgesic effect of a compound in chronic pain (in particular peripheral neuropathy) is the model known as Kim and Chung 1992, Pain […], pp 355-363 (Chung model). This model involves the surgical ligation of the L5 (and optionally the L6) spinal nerves on one side in experimental animals. Rats recovering from the surgery gain weight and display a level of general activity similar to that of normal rats. However, these rats develop abnormalities of the foot, wherein the hindpaw is moderately everted and the toes are held together. More importantly, the hindpaw on the side affected by the surgery appears to become sensitive to low-threshold mechanical stimuli and will perceive pain instead of the faint sensation of touch. This sensitivity to normally non-painful touch, called “tactile allodynia”, develops within the first week after surgery and lasts for at least two months. The allodynia response includes lifting the affected hindpaw to escape from the stimulus, licking the paw and holding it in the air for many seconds. None of these responses is normally seen in the control group.
# To produce the tactile allodynia, rats are anesthetized before surgery. The surgical site is shaved and prepared either with betadine or Novacaine. Incision is made from the thoracic vertebra X111 down toward the sacrum. Muscle tissue is separated from the spinal vertebra (left side) at the L4-S2 levels. The L6 vertebra is located and the transverse process is carefully removed with a small rongeur to expose the L4-L6 spinal nerves. The L5 and L6 spinal nerves are isolated and tightly ligated with 6-0 silk thread. The same procedure is done on the right side as a control, except no ligation of the spinal nerves is performed.
# After a complete hemostasis is confirmed, the wounds are sutured. A small amount of antibiotic ointment is applied to the incised area, and the rat is transferred to the recovery plastic cage under a regulated heat-temperature lamp.
# On the day of the experiment, at least seven days after the surgery, typically six rats per test group are administered the test drugs by intraperitoneal (i.p.) injection or oral gavage (p.o.). For i.p. administration, the compounds are formulated in H2O and given in a volume of 1 ml/kg body weight by injecting into the intraperitoneal cavity. For p.o. administration, the compounds are formulated in H2O and given in a volume of 1 ml/kg body weight using an 18-gauge, 3 inch gavage needle that is slowly inserted through the esophagus into the stomach.
# Tactile allodynia is assessed via von Frey hairs, which are a series of fine hairs with incremental differences in stiffness. Rats are placed in a plastic cage with a wire mesh bottom and allowed to acclimate for approximately 30 minutes. To establish the pre-drug baseline, the von Frey hairs are applied perpendicularly through the mesh to the mid-plantar region of the rats' hindpaw with sufficient force to cause slight buckling and held for 6-8 seconds. The applied force has been calculated to range from 0.41 to 15.1 grams. If the paw is sharply withdrawn, it is considered a positive response. A normal animal will not respond to stimuli in this range, but a surgically ligated paw will be withdrawn in response to a 1-2 gram hair. The 50% paw withdrawal threshold is determined using the method of Dixon, W. J., Ann. Rev. Pharmacol. Toxicol. 20:441-462 (1980) hereby incorporated by reference. Tactile allodynia is measured prior to and 15, 30, and 60 minutes after drug administration. The post-drug threshold is compared to the pre-drug threshold and the percent reversal of tactile sensitivity is calculated based on a normal threshold of 15.1 grams.
# Table 1 below indicates the degree of pain reversal obtained in the Chung model with exemplary compounds of the invention. […]
# [1] = 1 h, 300 μg/kg IP, peak at 60 min post dose
# [2] = 0.5 h, 300 μg/kg IP, peak at 30 min post dose
Compound,inhibition in vivo at 0.3 mg/kg [1] [%],also measured
"Cn1ccnc1[C@H](O)[C@@H](N)C(=O)N1CCCC1 (racemic) [Compound 254, (±)-threo-2-Amino-3-hydroxy-3-(1-methyl-1H-imidazol-2-yl)-1-(pyrrolidin-1-yl)propan-1-one dihydrochloride]",62,–
"NC(C(=O)N1CC[C@H](F)C1)C(O)c1ccncc1 (stereo partly drawn) [Compound 214, (2S,3R)- & (2R,3S)-2-Amino-1-((S)-3-fluoropyrrolidin-1-yl)-3-hydroxy-3-(pyridin-4-yl)propan-1-one dihydrochlorides]",–,"inhibition in vivo at 0.03 mg/kg (1 h, peak at 60 min post dose): 86%"
"N[C@@H](C(=O)N1CCCC1)[C@@H](O)c1cccnc1 (racemic) [Compound 20, DL-threo-2-Amino-3-hydroxy-3-(pyridin-3-yl)-1-(pyrrolidin-1-yl)propan-1-one dihydrochloride]",–,"inhibition in vivo at 0.03 mg/kg (1 h, peak at 60 min post dose): 92%"
"NC(C(=O)N1CC[C@@H](F)C1)C(O)c1ccncc1 (stereo partly drawn) [Compound 215, (2S,3R)- & (2R,3S)-2-Amino-1-((R)-3-fluoropyrrolidin-1-yl)-3-hydroxy-3-(pyridin-4-yl)propan-1-one dihydrochlorides]",73,–
"O=C(N[C@@H](C(=O)N1CCCC1)[C@@H](O)c1ccncc1)c1ccc(Cl)c(Cl)c1 (racemic) [Compound 57, 3,4-Dichloro-N-(DL-threo-1-Hydroxy-3-oxo-1-(pyridin-4-yl)-3-(pyrrolidin-1-yl)propan-2-yl)benzamide]",–,inhibition in vivo at 0.3 mg/kg [2]: 51%
"N[C@@H](C(=O)N1CCCC1)[C@@H](O)c1cccc2ccccc12 (racemic) [Compound 29, DL-threo-2-Amino-3-hydroxy-3-(naphthalen-1-yl)-1-(pyrrolidin-1-yl)propan-1-one hydrochloride]",47,–
"NC(C(=O)N1CCCC1)C(=NO)c1ccncc1 (racemic) [Compound 224, (±)-2-Amino-3-(hydroxyimino)-3-(pyridin-4-yl)-1-(pyrrolidin-1-yl)propan-1-one dihydrochloride]",51,–
"O=C([C@@H](NCc1cccc(I)c1)[C@H](O)c1ccncc1)N1CCCC1 [Compound 228, (+)-(2S,3R)-2-(3-iodobenzylamino)-3-hydroxy-3-(pyridin-4-yl)-1-(pyrrolidin-1-yl)-propan-1-one dihydrochloride]",36,–
"NC(C(=O)N1CCCC1)C(O)c1ccsc1 (single isomer, unassigned; (+)) [Compound 205, (+)-threo-2-Amino-3-hydroxy-1-(pyrrolidin-1-yl)-3-(thiophen-3-yl)propan-1-one hydrochloride]",–,inhibition in vivo at 0.3 mg/kg [2]: 62%
"N[C@@H](C(=O)N1CCCC1)[C@H](O)c1ccncc1 (racemic) [Compound 219, (±)-erythro-2-amino-3-hydroxy-3-(pyridin-4-yl)-1-(pyrrolidin-1-yl)propan-1-one dihydrochloride]",–,"inhibition in vivo at 0.03 mg/kg (1 h, peak at 60 min post dose): 82%"
"Cl.Cl.N[C@H](C(=O)N1CC[C@H](F)C1)[C@H](O)c1ccsc1 [Compound 256, (2S,3R)- & (2R,3S)-2-Amino-1-((S)-3-fluoropyrrolidin-1-yl)-3-hydroxy-3-(thiophen-3-yl)propan-1-one dihydrochlorides]",–,"Peak % Pain reversal: time post dose (300 μg/kg IP, peak at 60 min post dose): 62% 60 min"
"O=C([C@H](NCc1cccc(I)c1)[C@@H](O)c1ccncc1)N1CCCC1 [Compound 229, (2R,3S)-2-(3-iodobenzylamino)-3-hydroxy-3-(pyridin-4-yl)-1-(pyrrolidin-1-yl)-propan-1-one dihydrochloride]",53,–
"CCCCCCCN[C@@H](C(=O)N1CCCC1)[C@@H](O)c1ccncc1 (racemic) [Compound 64, DL-threo-3-Hydroxy-2-(heptylamino)-3-(pyridin-4-yl)-1-(pyrrolidin-1-yl)propan-1-one dihydrochloride]",–,inhibition in vivo at 0.3 mg/kg [2]: 100%
"O=CN[C@@H](C(=O)N1CCCC1)[C@@H](O)c1ccncc1 (racemic) [Compound 216, N-((±)-threo-1-hydroxy-3-oxo-1-(pyridin-4-yl)-3-(pyrrolidin-1-yl)propan-2-yl)formamide hydrochloride]",100,–
"N[C@@H](C(=O)N1CCCC1)[C@@H](O)c1ccc2ccccc2c1 (racemic) [Compound 28, DL-threo-2-Amino-3-hydroxy-3-(naphthalen-2-yl)-1-(pyrrolidin-1-yl)propan-1-one hydrochloride]",92,–
"COc1ccc(CN[C@@H](C(=O)N2CCCC2)[C@@H](O)c2ccncc2)cc1 (racemic) [Compound 67, DL-threo-2-(4-Methoxybenzylamino)-3-hydroxy-3-(pyridin-4-yl)-1-(pyrrolidin-1-yl)propan-1-one one]",78,–
"O=C(N[C@@H](C(=O)N1CCCC1)[C@@H](O)c1ccncc1)OCc1ccccc1 (racemic) [Compound 58, Benzyl DL-threo-3-hydroxy-1-oxo-3-(pyridin-4-yl)-1-(pyrrolidin-1-yl)propan-2-ylcarbamate hydrochloride]",75,–
"N[C@@H](Cc1ccncc1)C(=O)N1CCCC1 [Compound 240, (S)-2-amino-3-(pyridin-4-yl)-1-(pyrrolidin-1-yl)propan-1-one dihydrochloride]",–,"inhibition in vivo at 0.03 mg/kg (1 h, peak at 60 min post dose): 70%"
"N[C@@H](C(=O)N1CCCC1)[C@@H](O)c1csc2ccccc12 (racemic) [Compound 26, hydrochloride]",92,–
"N[C@@H](C(=O)N1CCCC1)[C@@H](O)c1ccc(I)cc1 (racemic) [Compound 210, (±)-threo-2-Amino-3-hydroxy-3-hydroxy-3-(4-iodophenyl)-1-(pyrrolidin-1-yl)propan-1-one dihydrochloride]",78,–
"NC(C(=O)N1CCCC1)C(O)c1cccnc1 (single isomer, unassigned; (-)) [Compound 207, (−)-threo-2-Amino-3-hydroxy-3-(pyridin-3-yl)-1-(pyrrolidin-1-yl)propan-1-one dihydrochloride]",96,–
"N[C@H](C(=O)N1CCCC1)[C@@H](O)c1ccncc1 [Compound 221, (+)-(2S,3S)-2-amino-3-hydroxy-3-(pyridin-4-yl)-1-(pyrrolidin-1-yl)propan-1-one dihydrochloride]",87,–
O=C([C@H](NC1CCCCC1)[C@@H](O)c1ccncc1)N1CCCC1 (racemic) [Compound 69],–,inhibition in vivo at 0.3 mg/kg [2]: 63%
"N[C@@H](C(=O)N1CCOCC1)[C@@H](O)c1ccsc1 (racemic) [Compound 230, (±)-threo-2-Amino-3-hydroxy-1-morpholino-3-(thiophen-3-yl)propan-1-one hydrochloride]",–,inhibition in vivo at 0.3 mg/kg [2]: 52%
"N[C@@H](C(=O)N1CCCC1)[C@@H](O)c1ccncc1Cl (racemic) [Compound 43, DL-threo-2-Amino-3-(3-chloropyridin-4-yl)-3-hydroxy-1-(pyrrolidin-1-yl)propan-1-one dihydrochloride]",96,–
"N[C@@H](C(=O)N1CC=CC1)[C@@H](O)c1ccnc(Cl)c1 (racemic) [Compound 34, DL-threo-2-Amino-3-(2-chloropyridin-4-yl)-3-hydroxy-1-(2H-pyrrol-1 (5H)-yl)propan-1-one dihydrochloride]",62,–
"N[C@@H](C(=O)N1CCOCC1)[C@@H](O)c1cccnc1 (racemic) [Compound 232, (±)-threo-2-Amino-3-hydroxy-1-morpholino-3-(pyridin-3-yl)propan-1-one dihydrochloride]",80,–
"CCCCCCCCCC(=O)N[C@@H](C(=O)N1CCCC1)[C@@H](O)c1ccncc1 (racemic) [Compound 59, N-(DL-threo-3-hydroxy-1-oxo-3-(pyridin-4-yl)-1-(pyrrolidin-1-yl)propan-2-yl)decanamide hydrochloride]",92,–
